Results on 21 molecules are retold here after PubChem BioAssay AID330 (DTP/NCI, 2004).

The subject of the assay is P388 leukemia ip, CD2F1 mice, survival T/C. Briefly: NCI In Vivo Anticancer Drug Screen. Data for tumor model P388 Leukemia (intraperitoneal) in CD2F1 (CDF1) mice. As to conditions: endpoint: median survival time, higher = longer survival. In a few lines: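 Mice carrying the transplanted tumor received test compound or vehicle. Survival was recorded in each group, and the value is the treated-group measurement divided by that of the vehicle-treated control group.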

[1] abbreviates: dose: 50.0 mg/kg/injection, schedule: Q01DX005 (ip), vehicle: Klucel (hydroxypropylcellulose) (HPC).
Where [2] appears, read: dose: 50.0 mg/kg/injection, schedule: Q01DX009 (ip), vehicle: Klucel (hydroxypropylcellulose) (HPC).
The mark [3] stands for this setting: dose: 50.0 mg/kg/injection, schedule: Q04DX003 (ip), vehicle: saline with Tween-80.
[4] abbreviates: dose: 100.0 mg/kg/injection, schedule: Q04DX003 (ip), vehicle: saline with Tween-80.
[5] abbreviates: dose: 200.0 mg/kg/injection, schedule: Q04DX003 (ip), vehicle: saline with Tween-80.
Where [6] appears, read: dose: 400.0 mg/kg/injection, schedule: Q04DX003 (ip), vehicle: saline with Tween-80.
[7] abbreviates: dose: 60.0 mg/kg/injection, schedule: Q01DX005 (ip), vehicle: saline with Tween-80.
Where [8] appears, read: dose: 120.0 mg/kg/injection, schedule: Q01DX005 (ip), vehicle: saline with Tween-80.
Setting [9] is: dose: 240.0 mg/kg/injection, schedule: Q01DX005 (ip), vehicle: saline with Tween-80.
The mark [10] stands for this setting: dose: 12.5 mg/kg/injection, schedule: Q01DX005 (ip), vehicle: Klucel (hydroxypropylcellulose) (HPC).
[11] abbreviates: dose: 25.0 mg/kg/injection, schedule: Q01DX005 (ip), vehicle: Klucel (hydroxypropylcellulose) (HPC).
The mark [12] stands for this setting: dose: 50.0 mg/kg/injection, schedule: Q01DX005 (ip), vehicle: saline with Tween-80.
Where [13] appears, read: dose: 100.0 mg/kg/injection, schedule: Q01DX005 (ip), vehicle: saline with Tween-80.
The mark [14] stands for this setting: dose: 200.0 mg/kg/injection, schedule: Q01DX005 (ip), vehicle: saline with Tween-80.

SMILES strings stand for the structures. Where “and” joins values, the source holds several entries; their conditions need not be identical. Equal values may be shown once. Inconclusive results and toxic doses are left out.

In the case of `Clc1ccc2[nH]c3ccc(Cl)cc3c2c1`, the T/C under setting [1] is 104 % of control; the T/C (dose: 100.0 mg/kg/injection, schedule: Q01DX005 (ip), vehicle: Klucel (hydroxypropylcellulose) (HPC)) is 113 % of control; the T/C (dose: 200.0 mg/kg/injection, schedule: Q01DX005 (ip), vehicle: Klucel (hydroxypropylcellulose) (HPC)) was 113 % of control.
Take `CC1CCC2(CC1)CC(=O)N(N1CCOCC1)C(=O)C2`: the T/C runs as follows: (dose: 60.0 mg/kg/injection, schedule: Q01DX005 (ip), vehicle: suspension in saline) 99 % of control; (dose: 120.0 mg/kg/injection, schedule: Q01DX005 (ip), vehicle: suspension in saline) 99 % of control; (dose: 240.0 mg/kg/injection, schedule: Q01DX005 (ip), vehicle: suspension in saline) 102 % of control.
With `O=[N+]([O-])c1ccc(/C=N/O)s1`, the T/C reads like this: (dose: 12.5 mg/kg/injection, schedule: Q01DX009 (ip), vehicle: Klucel (hydroxypropylcellulose) (HPC)) 109 % of control; (dose: 25.0 mg/kg/injection, schedule: Q01DX009 (ip), vehicle: Klucel (hydroxypropylcellulose) (HPC)) 101 % of control; under setting [2], 108 % of control.
Consider `C/C(=C\N1CCN(c2ccc(F)cc2)CC1)C(=O)c1ccc(F)cc1`, for which the T/C was 101 % of control under setting [3], 99 % of control under setting [4], 98 % of control under setting [5] and 117 % of control under setting [6].
For `COC(=O)c1nc(N)nc(C(=O)OC)c1C(=O)Cc1ccccc1`, the T/C under setting [7] is 100 % of control and the T/C under setting [8] is 103 % of control.
Turning to `CCOc1ccc(N=c2ccn3ccccc3c2)cc1`, the T/C by setting is: (dose: 6.25 mg/kg/injection, schedule: Q01DX009 (ip), vehicle: saline with Tween-80) 102 % of control; (dose: 12.5 mg/kg/injection, schedule: Q01DX009 (ip), vehicle: saline with Tween-80) 110 % of control; (dose: 25.0 mg/kg/injection, schedule: Q01DX009 (ip), vehicle: saline with Tween-80) 111 % of control.
Regarding `COc1ccc(Br)cc1/C=N\NS(=O)(=O)c1ccc(C)cc1`, the T/C (dose: 100.0 mg/kg/injection, schedule: Q01DX009 (ip), vehicle: saline with Tween-80) is 104 % of control; the T/C under setting [4] was 116 % of control; the T/C (dose: 200.0 mg/kg/injection, schedule: Q01DX009 (ip), vehicle: saline with Tween-80) is 109 % of control; the T/C under setting [5] is 100 % of control; the T/C (dose: 400.0 mg/kg/injection, schedule: Q01DX009 (ip), vehicle: saline with Tween-80) is 122 % of control; the T/C under setting [6] was 108 % of control.
With `C=CCC1CCC/C1=N\O` (centres undefined), the T/C reads like this: under setting [7], 105 % of control; under setting [8], 104 % of control; under setting [9], 100 % of control.
On the same counts, the results for `Nc1nc(N)c2nc(-c3ccc([N+](=O)[O-])cc3)c(=O)[nH]c2n1` are 94 % of control, 91 % of control and 91 % of control.
For the molecule `CC(CNC(Cc1ccccc1)c1ccccc1)NC(Cc1ccccc1)c1ccccc1` (centres undefined), the T/C runs as follows: under setting [10], 110 % of control; under setting [11], 102 % of control; under setting [1], 105 % of control and 110 % of control.
In the case of `CC1(C)COCN1CN1COCC1(C)C`, the T/C reads like this: (dose: 0.78 mg/kg/injection, schedule: Q04DX003 (ip), vehicle: saline) 100 % of control; (dose: 1.56 mg/kg/injection, schedule: Q04DX003 (ip), vehicle: saline) 101 % of control; (dose: 3.13 mg/kg/injection, schedule: Q04DX003 (ip), vehicle: saline) 100 % of control; (dose: 12.5 mg/kg/injection, schedule: Q04DX003 (ip), vehicle: saline) 111 % of control; (dose: 25.0 mg/kg/injection, schedule: Q04DX003 (ip), vehicle: saline) 102 % of control; (dose: 50.0 mg/kg/injection, schedule: Q04DX003 (ip), vehicle: saline) 120 % of control. Further, the T/C is 123 % of control (dose: 100.0 mg/kg/injection, schedule: Q04DX003 (ip), vehicle: saline) and 107 % of control (dose: 200.0 mg/kg/injection, schedule: Q04DX003 (ip), vehicle: saline).
Turning to `COC(=O)c1cc(NS(=O)(=O)N(C)C)cc(C(=O)OC)c1`, the T/C under setting [2] was 103 % of control; the T/C (dose: 100.0 mg/kg/injection, schedule: Q01DX009 (ip), vehicle: Klucel (hydroxypropylcellulose) (HPC)) is 103 % of control; the T/C (dose: 200.0 mg/kg/injection, schedule: Q01DX009 (ip), vehicle: Klucel (hydroxypropylcellulose) (HPC)) was 103 % of control.
Consider `c1cc2c(c(NC3=NCCCO3)c1)CCCC2`, for which the T/C (dose: 12.5 mg/kg/injection, schedule: Q04DX003 (ip), vehicle: saline with Tween-80) is 108 % of control; the T/C (dose: 25.0 mg/kg/injection, schedule: Q04DX003 (ip), vehicle: saline with Tween-80) was 108 % of control; the T/C under setting [3] was 100 % of control.
With `CN/N=C\c1cc2ccccc2c2ccccc12`, the T/C reads like this: under setting [12], 96 % of control; under setting [13], 91 % of control; under setting [14], 88 % of control.
Consider `O=C1CCCCCC2=NC12` (centres undefined), for which the T/C (dose: 6.25 mg/kg/injection, schedule: Q01DX005 (ip), vehicle: Klucel (hydroxypropylcellulose) (HPC)) is 105 % of control and 90 % of control; the T/C under setting [10] is 103 % of control and 109 % of control; the T/C under setting [11] was 113 % of control and 118 % of control; the T/C under setting [1] was 116 % of control.
Consider `Cc1cc(=O)n(-c2ccccc2)c(=O)[nH]1`, for which the T/C runs as follows: (dose: 50.0 mg/kg/injection, schedule: Q01DX009 (ip), vehicle: saline) 104 % of control; (dose: 100.0 mg/kg/injection, schedule: Q01DX009 (ip), vehicle: saline) 111 % of control; (dose: 200.0 mg/kg/injection, schedule: Q01DX009 (ip), vehicle: saline) 111 % of control.
On to `CN(C)CC(CN(C)C)C(=O)/C=C/c1ccc(O)cc1`, for which the T/C by setting is: (dose: 1.56 mg/kg/injection, schedule: Q01DX005 (ip), vehicle: saline) 105 % of control; (dose: 3.12 mg/kg/injection, schedule: Q01DX005 (ip), vehicle: saline) 114 % of control; (dose: 6.25 mg/kg/injection, schedule: Q01DX005 (ip), vehicle: saline) 114 % of control.
For the molecule `CCc1nc(N)nc(N)c1-c1ccc(N(C)Cc2ccccc2)c([N+](=O)[O-])c1`, the T/C is 116 % of control (dose: 60.0 mg/kg/injection, schedule: Q01DX005 (ip), vehicle: Klucel (hydroxypropylcellulose) (HPC)); 120 % of control (dose: 120.0 mg/kg/injection, schedule: Q01DX005 (ip), vehicle: Klucel (hydroxypropylcellulose) (HPC)); 185 % of control (dose: 240.0 mg/kg/injection, schedule: Q01DX005 (ip), vehicle: Klucel (hydroxypropylcellulose) (HPC)); 205 % of control (dose: 480.0 mg/kg/injection, schedule: Q01DX005 (ip), vehicle: Klucel (hydroxypropylcellulose) (HPC)).
On to `COc1ccc2nc3ccccc3c(NCCCCCCNc3c4ccccc4nc4ccc(OC)cc34)c2c1`, for which the T/C (dose: 0.62 mg/kg/injection, schedule: Q## X009 (ip), vehicle: lactic acid) was 108 % of control; the T/C (dose: 0.63 mg/kg/injection, schedule: Q01DX009 (ip), vehicle: other) was 100 % of control; the T/C (dose: 1.25 mg/kg/injection, schedule: Q01DX009 (ip), vehicle: other) was 107 % of control; the T/C (dose: 1.25 mg/kg/injection, schedule: Q## X009 (ip), vehicle: lactic acid) is 111 % of control; the T/C (dose: 2.5 mg/kg/injection, schedule: Q01DX009 (ip), vehicle: other) is 100 % of control; the T/C (dose: 2.5 mg/kg/injection, schedule: Q## X009 (ip), vehicle: lactic acid) was 119 % of control. Further, the T/C is 109 % of control (dose: 3.75 mg/kg/injection, schedule: Q01DX009 (ip), vehicle: other); 116 % of control (dose: 5.0 mg/kg/injection, schedule: Q01DX009 (ip), vehicle: other); 113 % of control (dose: 5.0 mg/kg/injection, schedule: Q## X009 (ip), vehicle: lactic acid).
Take `Clc1ccc(/C=C/c2ccccn2)cc1`: the T/C by setting is: under setting [12], 91 % of control; under setting [13], 90 % of control; under setting [14], 91 % of control.
On to `Nc1ccccc1C(=O)CCc1ccccc1C(=O)O`, for which the T/C runs as follows: under setting [12], 96 % of control; under setting [13], 99 % of control; under setting [14], 96 % of control.
